# The RepoRT retention time repository (doi:10.1016/j.jhazmat.2019.121712)
# Experiment: Thermo Scientific Acclaim RSLC 120 C18, 100 × 2.1 mm, 2.2 µm, 30 °C; A: 90% water + 10% methanol + 0.01% formic acid + 5 mM ammonium formate; B: methanol + 0.01% formic acid + 5 mM ammonium formate; gradient (min/%B) 0.1/1 3/39 14/99.9 16/99.9
# Conditions: stereoisomer not certain
row,Structure (SMILES),LC retention time [min]
1,CC(=O)Nc1ccc(S(=O)(=O)Nc2nccs2)cc1,4.24
2,CCNc1nc(NC(C)C)nc(OC)n1,7.81
3,CC(CN(C)C)CN1c2ccccc2Sc2ccccc21 (stereo not given),8.1
4,S=c1nc[nH]c2nc[nH]c12,2.61
5,N#Cc1ccc2c(c1)N(CCCN1CCC(O)CC1)c1ccccc1S2,7.45
6,CCNC(C)C(=O)c1ccc2c(c1)OCO2 (stereo not given),4.04
7,CCCCCn1nc(C(=O)c2cccc3ccccc23)c2ccccc21,13.1
8,CCCc1nn(C)c2c(=O)[nH]c(-c3cc(C(=O)CN4CC(C)NC(C)C4)ccc3OCC)nc12 (stereo not given),7.5
9,Nc1ccc(S(=O)(=O)NC(=O)c2ccccc2)cc1,4.72
10,CCCCCn1c2ccccc2c2cc(C(=O)c3cccc4ccccc34)ccc21,14.2
11,Nc1ncnc2c1ncn2C1OC(CO)C(O)C1O (stereo not given),3.14
12,CCOC(=O)C1(c2ccccc2)CCC=CC1N(C)C (stereo not given),5.1
13,c1cc2c(cc1CN1CCNCC1)OCO2,4.22
14,NCC(O)c1ccccc1 (stereo not given),2.84
15,CCOP(=S)(OCC)Oc1cc(C)nc(C(C)C)n1,11
16,CCCC(C(=O)c1ccc2ccccc2c1)N1CCCC1 (stereo not given),7.33
17,CCOP(=S)(OCC)SCS(=O)C(C)(C)C (stereo not given),9
18,CCCCNc1cc(C(=O)O)cc(S(N)(=O)=O)c1Oc1ccccc1,7.83
19,CCOc1ccccc1OS(=O)(=O)NC(=O)Nc1nc(OC)cc(OC)n1,9.32
20,CC12C=CC3=C4CCC(=O)C=C4CCC3C1CCC2O (stereo not given),8.89
21,NNCCc1ccccc1,3.71
22,CC12CCC3C(CC=C4CC(O)CCC43C)C1CCC2=O (stereo not given),10.2
23,CCOc1nc2cccc(C(=O)OC(C)OC(=O)OC3CCCCC3)c2n1Cc1ccc(-c2ccccc2-c2nn[nH]n2)cc1 (stereo not given),12.2
24,CN1C2CCC1CC(OC(c1ccccc1)c1ccccc1)C2 (stereo not given),7.97
25,NC(Cc1cnc[nH]1)C(=O)O (stereo not given),1.23
26,CON=C(C(=O)NC1C(=O)N2C(C(=O)O)=C(CSC(=O)c3ccco3)CSC12)c1csc(N)n1 (stereo not given),5.44
27,COc1ccc2cc(C(C)C(=O)O)ccc2c1 (stereo not given),8.99
28,COP(=S)(OC)Oc1ccc([N+](=O)[O-])cc1,9.24
29,CCOC(=O)C1(c2ccccc2)CCC=CC1NC (stereo not given),5.28
30,CC=C1N(C)C(C)CC1(c1ccccc1)c1ccccc1 (stereo not given),6.38
